The results in this text go back to patent US20230123334A1, “AMINO LIPID COMPOUND, PREPARATION METHOD THEREFOR, AND APPLICATION THEREOF” (SHENZHEN SHENXIN BIOTECHNOLOGY CO., LTD., priority 2020, published 2023).

The structures appear in SMILES notation.

The test system of experiment [1] is HEK293 cells. The experiment is described as follows: Preliminary screening as mRNA vectors, EGFP mRNA transfection of HEK293 cells. It is filed as cell-based. Particulars: HEK293 cells, 96-well plates, EGFP mRNA 50 ng per well; percentage of GFP fluorescent cells relative to total number of cells (Hoechst). An outline of the steps:
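Screening format: EGFP mRNA transfection (50 ng/well) into HEK293 in 10% FBS-supplemented DMEM. Percent green fluorescent cells, normalised to Hoechst nuclear count, gave the value; Lipofectamine2000 was the reference transfectant.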

The test system of experiment [2] is HEK293 cells. The experiment is described as follows: Preliminary screening as DNA vectors, GFP transfection of HEK293 cells. It is filed as cell-based. To be noted: HEK293 cells; lipid/DOPE liposome with 75 ng plasmid DNA (psin-EGFP-IRES-Puro); number of cells expressing GFP divided by total number of nuclei (Hoechst). An outline of the steps:
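First, amino lipid and DOPE were vortexed in sodium acetate buffer (pH 5.6) to form liposomes. Next, these were held with 75 ng EGFP plasmid at room temperature for 30 min. Finally, HEK293 cells were added, cultured at 37° C., Hoechst-stained, and GFP+/total nuclei scored by imaging.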

In the case of `CCCCCCCCCCCCNc1nc(NCCCN2CCOCC2)nc(N(CCCCCCCCCCCC)CCCCCCCCCCCC)n1` [N12^2N12D8], the “Absolute mRNA transfection efficiency in HEK293 cells” value (shortened to “Absolute mRNA transfection efficiency”) in the experiment on HEK293 cells [1] amounted to 3.2%. The “Absolute DNA transfection efficiency in HEK293 cells” value (“Absolute DNA transfection efficiency” for short) with HEK293 cells [2] is recorded as 0.6%.
Taken in the same sequence, the figures for `CCCCCCCCCCCCNc1nc(NCCCN2CCN(C)CC2)nc(N(CCCCCCCCCCCC)CCCCCCCCCCCC)n1` [N12^2N12D9] were 0.7% and 3.0%.
For the molecule `CCCCCCCCCCCCNc1nc(NCC2CCN(C)CC2)nc(N(CCCCCCCCCCCC)CCCCCCCCCCCC)n1` [N12^2N12D10], the “Absolute mRNA transfection efficiency” value with HEK293 cells [1] is 0.9%. For the same molecule, the “Absolute DNA transfection efficiency” value in the experiment on HEK293 cells [2] is reported as 0.7%.
On the same counts, the results for `CCCCCCCCCCCCCNc1nc(NCCN(C)C)nc(N(CCCCCCCCCCCC)CCCCCCCCCCCC)n1` [N13^2N12D1] are 4.7% and 1.2%.
Turning to `CCCCCCCCCCCCCNc1nc(NCCN2CCOCC2)nc(N(CCCCCCCCCCCC)CCCCCCCCCCCC)n1` [N13^2N12D2], the “Absolute mRNA transfection efficiency” value in the experiment on HEK293 cells [1] is 0.5%. Also, the “Absolute DNA transfection efficiency” value with HEK293 cells [2] turned out to be 0.1%.
On the same counts, the results for `CCCCCCCCCCCCCNc1nc(NCCN2CCCC2)nc(N(CCCCCCCCCCCC)CCCCCCCCCCCC)n1` [N13^2N12D3] are 7.3% and 0.6%.
In the case of `CCCCCCCCCCCCCNc1nc(NCCN2CCCCC2)nc(N(CCCCCCCCCCCC)CCCCCCCCCCCC)n1` [N13^2N12D4], the “Absolute mRNA transfection efficiency” value in the experiment on HEK293 cells [1] is given as 4.5%. Also, the “Absolute DNA transfection efficiency” value in the experiment with HEK293 cells [2] was 0.8%.
`CCCCCCCCCCCCCNc1nc(NCCN2CCN(C)CC2)nc(N(CCCCCCCCCCCC)CCCCCCCCCCCC)n1` [N13^2N12D5]: the “Absolute mRNA transfection efficiency” value in the experiment with HEK293 cells [1] turned out to be 4.9%. Further, the “Absolute DNA transfection efficiency” value in the experiment on HEK293 cells [2] is listed as 0.0%.
Taken in the same sequence, the figures for `CCCCCCCCCCCCCNc1nc(NCCCN(C)C)nc(N(CCCCCCCCCCCC)CCCCCCCCCCCC)n1` [N13^2N12D6] were 3.9% and 1.3%.
On the same counts, the results for `CCCCCCCCCCCCCNc1nc(NCCN(CC)CC)nc(N(CCCCCCCCCCCC)CCCCCCCCCCCC)n1` [N13^2N12D7] are 2.9% and 0.2%.
On the same counts, the results for `CCCCCCCCCCCCCNc1nc(NCCCN2CCOCC2)nc(N(CCCCCCCCCCCC)CCCCCCCCCCCC)n1` [N13^2N12D8] are 2.3% and 0.0%.
Turning to `CCCCCCCCCCCCCNc1nc(NCCCN2CCN(C)CC2)nc(N(CCCCCCCCCCCC)CCCCCCCCCCCC)n1` [N13^2N12D9], the “Absolute mRNA transfection efficiency” value with HEK293 cells [1] is recorded as 2.3%. In the experiment with HEK293 cells [2], the “Absolute DNA transfection efficiency” value is 1.7%.
On the same counts, the results for `CCCCCCCCCCCCCNc1nc(NCC2CCN(C)CC2)nc(N(CCCCCCCCCCCC)CCCCCCCCCCCC)n1` [N13^2N12D10] are 0.0% and 0.0%.
On the same counts, the results for `CCCCCCCCCCCCCCCNc1nc(NCCN(C)C)nc(N(CCCCCCCCCCCC)CCCCCCCCCCCC)n1` [N15^2N12D1] are 0.0% and 0.9%.
Taken in the same sequence, the figures for `CCCCCCCCCCCCCCCNc1nc(NCCN2CCOCC2)nc(N(CCCCCCCCCCCC)CCCCCCCCCCCC)n1` [N15^2N12D2] were 0.0% and 0.5%.
In the case of `CCCCCCCCCCCCCCCNc1nc(NCCN2CCCC2)nc(N(CCCCCCCCCCCC)CCCCCCCCCCCC)n1` [N15^2N12D3], in the experiment on HEK293 cells [1], the “Absolute mRNA transfection efficiency” value is on record as 0.0%. Further, the “Absolute DNA transfection efficiency” value with HEK293 cells [2] was found to be 2.4%.
As to `CCCCCCCCCCCCCCCNc1nc(NCCN2CCCCC2)nc(N(CCCCCCCCCCCC)CCCCCCCCCCCC)n1` [N15^2N12D4], in the experiment with HEK293 cells [1], the “Absolute mRNA transfection efficiency” value is 2.9%. Besides, the “Absolute DNA transfection efficiency” value in the experiment with HEK293 cells [2] came out at 2.1%.
As to `CCCCCCCCCCCCCCCNc1nc(NCCN2CCN(C)CC2)nc(N(CCCCCCCCCCCC)CCCCCCCCCCCC)n1` [N15^2N12D5], the “Absolute mRNA transfection efficiency” value in the experiment with HEK293 cells [1] was determined as 3.7%. In addition, in the experiment on HEK293 cells [2], the “Absolute DNA transfection efficiency” value was determined as 2.8%.
Taken in the same sequence, the figures for `CCCCCCCCCCCCCCCNc1nc(NCCCN(C)C)nc(N(CCCCCCCCCCCC)CCCCCCCCCCCC)n1` [N15^2N12D6] were 9.0% and 6.3%.
In the case of `CCCCCCCCCCCCCCCNc1nc(NCCN(CC)CC)nc(N(CCCCCCCCCCCC)CCCCCCCCCCCC)n1` [N15^2N12D7], in the experiment with HEK293 cells [1], the “Absolute mRNA transfection efficiency” value came to 0.0%. Besides, in the experiment on HEK293 cells [2], the “Absolute DNA transfection efficiency” value is recorded as 1.3%.
As to `CCCCCCCCCCCCCCCNc1nc(NCCCN2CCOCC2)nc(N(CCCCCCCCCCCC)CCCCCCCCCCCC)n1` [N15^2N12D8], in the experiment on HEK293 cells [1], the “Absolute mRNA transfection efficiency” value amounted to 0.9%. Moreover, the “Absolute DNA transfection efficiency” value in the experiment with HEK293 cells [2] came out at 0.9%.
Consider `CCCCCCCCCCCCCCCNc1nc(NCCCN2CCN(C)CC2)nc(N(CCCCCCCCCCCC)CCCCCCCCCCCC)n1` [N15^2N12D9], for which, in the experiment on HEK293 cells [1], the “Absolute mRNA transfection efficiency” value is given as 0.0%. Also, in the experiment with HEK293 cells [2], the “Absolute DNA transfection efficiency” value amounted to 1.7%.
As to `CCCCCCCCCCCCCCCNc1nc(NCC2CCN(C)CC2)nc(N(CCCCCCCCCCCC)CCCCCCCCCCCC)n1` [N15^2N12D10], the “Absolute mRNA transfection efficiency” value in the experiment on HEK293 cells [1] was 3.5%. In the experiment with HEK293 cells [2], the “Absolute DNA transfection efficiency” value is 0.0%.
On the same counts, the results for `CCCCCCCCCCCCCCCCNc1nc(NCCN(C)C)nc(N(CCCCCCCCCCCC)CCCCCCCCCCCC)n1` [N16^2N12D1] are 3.4% and 0.0%.
On the same counts, the results for `CCCCCCCCCCCCCCCCNc1nc(NCCN2CCOCC2)nc(N(CCCCCCCCCCCC)CCCCCCCCCCCC)n1` [N16^2N12D2] are 0.0% and 0.4%.
Consider `CCCCCCCCCCCCCCCCNc1nc(NCCN2CCCC2)nc(N(CCCCCCCCCCCC)CCCCCCCCCCCC)n1` [N16^2N12D3], for which, in the experiment with HEK293 cells [1], the “Absolute mRNA transfection efficiency” value came to 4.0%. Besides, the “Absolute DNA transfection efficiency” value in the experiment with HEK293 cells [2] turned out to be 2.0%.
Consider `CCCCCCCCCCCCCCCCNc1nc(NCCN2CCCCC2)nc(N(CCCCCCCCCCCC)CCCCCCCCCCCC)n1` [N16^2N12D4], for which the “Absolute mRNA transfection efficiency” value with HEK293 cells [1] is 0.0%. Further, the “Absolute DNA transfection efficiency” value in the experiment with HEK293 cells [2] worked out at 3.2%.
As for `CCCCCCCCCCCCCCCCNc1nc(NCCN2CCN(C)CC2)nc(N(CCCCCCCCCCCC)CCCCCCCCCCCC)n1` [N16^2N12D5], the “Absolute mRNA transfection efficiency” value in the experiment with HEK293 cells [1] was found to be 0.0%. Besides, in the experiment with HEK293 cells [2], the “Absolute DNA transfection efficiency” value is 0.6%.
Taken in the same sequence, the figures for `CCCCCCCCCCCCCCCCNc1nc(NCCCN(C)C)nc(N(CCCCCCCCCCCC)CCCCCCCCCCCC)n1` [N16^2N12D6] were 0.0% and 0.5%.
Regarding `CCCCCCCCCCCCCCCCNc1nc(NCCN(CC)CC)nc(N(CCCCCCCCCCCC)CCCCCCCCCCCC)n1` [N16^2N12D7], in the experiment with HEK293 cells [1], the “Absolute mRNA transfection efficiency” value was found to be 3.0%. The “Absolute DNA transfection efficiency” value in the experiment on HEK293 cells [2] came to 1.1%.
